In patent US9334289B2, “Cephem compound having catechol or pseudo-catechol structure” (SHIONOGI & CO., LTD., priority 2011, dated 2016):

Experiments:
Assay type in all cases: cell-based
[1] = test system: E. coli SR01337; assay: MIC, CLSI broth microdilution, Test Example 2; conditions: Escherichia coli, SR01337; TEM-1 ESBL producing strain; cation-adjusted Iso-Sensitest broth containing human Apo-transferrin; 5×10^5 cfu/mL; read-out: Minimum Inhibitory Concentration (MIC) E. coli SR01337
Summary of the method: (§1)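 Test medium was Iso-Sensitest broth, cation-adjusted and containing human Apo-transferrin. Inoculum 5×10^5 cfu/mL; broth microdilution according to CLSI, with MIC expressed as μg/mL.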

[2] = test system: P. aeruginosa SR01335; assay: MIC, CLSI broth microdilution, Test Example 2; conditions: Pseudomonas aeruginosa, SR01335; VIM-1 like MBL producing strain (carbapenem resistance strain); cation-adjusted Iso-Sensitest broth containing human Apo-transferrin; 5×10^5 cfu/mL; read-out: Minimum Inhibitory Concentration (MIC) P. aeruginosa SR01335
Summary of the method: as §1

[3] = test system: P. aeruginosa SR01332; assay: MIC, CLSI broth microdilution, Test Example 2; conditions: Pseudomonas aeruginosa, SR01332; VIM-11 MBL producing strain (carbapenem resistance strain); cation-adjusted Iso-Sensitest broth containing human Apo-transferrin; 5×10^5 cfu/mL; read-out: Minimum Inhibitory Concentration (MIC) P. aeruginosa SR01332
Summary of the method: as §1

[4] = test system: E. coli ATCCBAA-196; assay: MIC, CLSI broth microdilution, Test Example 2; conditions: Escherichia coli, ATCCBAA196; TEM-10 ESBL producing strain; cation-adjusted Iso-Sensitest broth containing human Apo-transferrin; 5×10^5 cfu/mL; read-out: Minimum Inhibitory Concentration (MIC) E. coli ATCC BAA-196
Summary of the method: as §1

[5] = test system: E. cloacae NCTC13464; assay: MIC, CLSI broth microdilution, Test Example 2; conditions: Enterobacter cloacae, NCTC13464; CTX-M group 9 ESBL producing strain; cation-adjusted Iso-Sensitest broth containing human Apo-transferrin; 5×10^5 cfu/mL; read-out: Minimum Inhibitory Concentration (MIC) E. cloacae NCTC 13464
Summary of the method: as §1

[6] = test system: K. pneumoniae ATCC700603; assay: MIC, CLSI broth microdilution, Test Example 2; conditions: Klebsiella pneumoniae, ATCC700603; SHV18 ESBL producing strain; cation-adjusted Iso-Sensitest broth containing human Apo-transferrin; 5×10^5 cfu/mL; read-out: Minimum Inhibitory Concentration (MIC) K. pneumoniae ATCC 700603
Summary of the method: as §1

[7] = test system: A. baumannii SR01331; assay: MIC, CLSI broth microdilution, Test Example 2; conditions: Acinetobacter baumannii, SR01331; PER-1, OXA-23.51 ESBL- & OXA-type carbapenemase producing strain; cation-adjusted Iso-Sensitest broth containing human Apo-transferrin; 5×10^5 cfu/mL; read-out: Minimum Inhibitory Concentration (MIC) A. baumannii SR01331
Summary of the method: as §1

[8] = test system: E. coli ATCCBAA-200; assay: MIC, CLSI broth microdilution, Test Example 2; conditions: Escherichia coli, ATCCBAA200; SHV-4 ESBL producing strain; cation-adjusted Iso-Sensitest broth containing human Apo-transferrin; 5×10^5 cfu/mL; read-out: Minimum Inhibitory Concentration (MIC) E. coli ATCC BAA-200
Summary of the method: as §1

[9] = test system: E. coli ATCCBAA-199; assay: MIC, CLSI broth microdilution, Test Example 1; conditions: SHV-3 ESBL producing strain, cation-adjusted Mueller Hinton broth containing human apo-transferrin, 5×10^5 cfu/mL; for MIC: Escherichia coli, ATCCBAA199, read-out: Minimum Inhibitory Concentration (MIC) E. coli ATCC BAA-199
Summary of the method: (§2)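 Testing follows CLSI guidance using iron-limiting medium: cation-adjusted Mueller Hinton broth with added human apo-transferrin. Each well receives 5×10^5 cfu/mL, and the lowest inhibitory concentration is recorded in μg/mL.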

[10] = test system: P. aeruginosa SR27060; assay: MIC, CLSI broth microdilution, Test Example 1; conditions: IMP-1 MBL producing strain (carbapenem resistance strain), cation-adjusted Mueller Hinton broth containing human apo-transferrin, 5×10^5 cfu/mL; for MIC: Pseudomonas aeruginosa, SR27060, read-out: Minimum Inhibitory Concentration (MIC) P. aeruginosa SR27060
Summary of the method: as §2

[11] = test system: A. baumannii SR27323; assay: MIC, CLSI broth microdilution, Test Example 1; conditions: OXA-23, OXA-58 carbapenemase producing strain, cation-adjusted Mueller Hinton broth containing human apo-transferrin, 5×10^5 cfu/mL; for MIC: Acinetobacter baumannii, SR27323, read-out: Minimum Inhibitory Concentration (MIC) A. baumannii SR27323
Summary of the method: as §2

[12] = test system: E. coli ATCCBAA-200; assay: MIC, CLSI broth microdilution, Test Example 1; conditions: SHV-4 ESBL producing strain, cation-adjusted Mueller Hinton broth containing human apo-transferrin, 5×10^5 cfu/mL; for MIC: Escherichia coli, ATCCBAA200, read-out: Minimum Inhibitory Concentration (MIC) E. coli ATCC BAA-200
Summary of the method: as §2

[13] = test system: K. pneumoniae ATCCBAA-1705; assay: MIC, CLSI broth microdilution, Test Example 1; conditions: KPC-2 carbapenemase producing strain, cation-adjusted Mueller Hinton broth containing human apo-transferrin, 5×10^5 cfu/mL; for MIC: Klebsiella pneumoniae, ATCCBAA1705, read-out: Minimum Inhibitory Concentration (MIC) K. pneumoniae ATCCBAA-1705
Summary of the method: as §2

[14] = test system: P. aeruginosa SR24837; assay: MIC, CLSI broth microdilution, Test Example 1; conditions: PER-1 ESBL producing strain, cation-adjusted Mueller Hinton broth containing human apo-transferrin, 5×10^5 cfu/mL; for MIC: Pseudomonas aeruginosa, SR24837, read-out: Minimum Inhibitory Concentration (MIC) P. aeruginosa SR24837
Summary of the method: as §2

[15] = test system: P. aeruginosa SR24; assay: MIC, CLSI broth microdilution, Test Example 1; conditions: Ceftazidime resistance strain, cation-adjusted Mueller Hinton broth containing human apo-transferrin, 5×10^5 cfu/mL; for MIC: Pseudomonas aeruginosa, SR24, read-out: Minimum Inhibitory Concentration (MIC) P. aeruginosa SR24

SMILES | MIC [9] | MIC [10] | MIC [11] | MIC [12] | MIC [13] | MIC [14] | MIC [15] | also measured
CC(C)(O/N=C(\C(=O)N[C@@H]1C(=O)N2C(c3nnn[n-]3)=C(C[N+]3(C)[C@@H]4CC[C@H]3C[C@@H](NC(=O)c3ccc(O)c(O)c3Cl)C4)CS[C@H]12)c1nc(N)sc1Cl)C(=O)[O-].[Na+] (stereo partly shown) [Compound I-86] | 0.5 µg/mL | 0.25 µg/mL | 2 µg/mL | 0.5 µg/mL | 0.063 µg/mL | ≤ 0.031 µg/mL | 0.063 µg/mL | MIC [1]: ≤ 0.031 µg/mL; MIC [2]: 4 µg/mL; MIC [3]: 8 µg/mL; MIC [4]: 0.125 µg/mL; MIC [5]: 0.5 µg/mL; MIC [6]: 0.25 µg/mL; MIC [7]: 0.5 µg/mL; MIC [8]: 1 µg/mL
CC(C)(O/N=C(\C(=O)N[C@@H]1C(=O)N2C(c3nnn[n-]3)=C(C[N+]3(CCNC(=O)c4ccc(O)c(O)c4Cl)CCCC3)CS[C@H]12)c1csc(N)n1)C(=O)[O-].[Na+] [Compound I-1] | 0.063 µg/mL | 0.5 µg/mL | 0.5 µg/mL | 0.125 µg/mL | ≤ 0.031 µg/mL | 0.5 µg/mL | 0.5 µg/mL | –
CC(C)(O/N=C(\C(=O)N[C@@H]1C(=O)N2C(C(=O)[O-])=C(C[N+]34CCC(CNC(=O)c5ccc(O)c(O)c5Cl)(CC3)CC4)CS[C@H]12)c1csc(N)n1)C(=O)[O-].[Na+] [Comparative Compound 1, reference compound] | 2 µg/mL | 4 µg/mL | 1 µg/mL | 4 µg/mL | 0.125 µg/mL | > 32 µg/mL | 0.5 µg/mL | –
CC(C)(O/N=C(\C(=O)N[C@@H]1C(=O)N2C(c3nnn[n-]3)=C(C[N+]34CCC(CNC(=O)c5cc(=O)c(O)c[nH]5)(CC3)CC4)CS[C@H]12)c1csc(N)n1)C(=O)[O-].[Na+] [Compound I-9] | 0.25 µg/mL | 4 µg/mL | 1 µg/mL | 0.5 µg/mL | 0.063 µg/mL | 2 µg/mL | 0.25 µg/mL | –
CC(C)(O/N=C(\C(=O)N[C@@H]1C(=O)N2C(c3nn[n-]n3)=C(C[n+]3ccc(C(=O)c4ccc(O)c(O)c4Cl)cc3)CS[C@H]12)c1csc(N)n1)C(=O)[O-].[Na+] [Compound I-48] | 0.25 µg/mL | 0.25 µg/mL | 0.5 µg/mL | 0.25 µg/mL | ≤ 0.031 µg/mL | 0.125 µg/mL | ≤ 0.031 µg/mL | –
CC(C)(O/N=C(\C(=O)N[C@@H]1C(=O)N2C(c3nnn[n-]3)=C(C[N+]3(CCNC(=O)c4ccc(O)c(O)c4Cl)CCCC3)CS[C@H]12)c1nc(N)sc1Cl)C(=O)[O-].[Na+] [Compound I-88] | 0.063 µg/mL | 0.5 µg/mL | 0.5 µg/mL | 0.125 µg/mL | 0.063 µg/mL | ≤ 0.031 µg/mL | 0.063 µg/mL | –
CC(C)(O/N=C(\C(=O)N[C@@H]1C(=O)N2C(c3nnn[n-]3)=C(C[N+]3(CCNC(=O)c4cc(O)c(O)cc4Cl)CCCC3)CS[C@H]12)c1csc(N)n1)C(=O)[O-].[Na+] [Compound I-50] | 0.25 µg/mL | 1 µg/mL | 1 µg/mL | 0.5 µg/mL | ≤ 0.031 µg/mL | 2 µg/mL | 0.25 µg/mL | –
CC(C)(O/N=C(\C(=O)N[C@@H]1C(=O)N2C(c3nnn[n-]3)=C(C[N+]3(C)[C@@H]4CC[C@H]3C[C@@H](NC(=O)c3cc(O)c(O)c(F)c3)C4)CS[C@H]12)c1csc(N)n1)C(=O)[O-].[Na+] (stereo partly shown) [Compound I-6] | 0.25 µg/mL | 0.5 µg/mL | 2 µg/mL | 0.5 µg/mL | ≤ 0.031 µg/mL | 1 µg/mL | 0.25 µg/mL | –
CC(C)(O/N=C(\C(=O)N[C@@H]1C(=O)N2C(c3nnn[n-]3)=C(C[n+]3ccc(NC(=O)c4ccc(O)c(O)c4Cl)cc3)CS[C@H]12)c1csc(N)n1)C(=O)[O-].[Na+] [Compound I-15] | 0.063 µg/mL | 0.5 µg/mL | ≤ 0.031 µg/mL | 0.25 µg/mL | ≤ 0.031 µg/mL | ≤ 0.031 µg/mL | 0.125 µg/mL | –
CC(C)(O/N=C(\C(=O)N[C@@H]1C(=O)N2C(c3nn[n-]n3)=C(C[N+]3(Cc4nnc(-c5ccc(O)c(O)c5Cl)o4)CCCC3)CS[C@H]12)c1csc(N)n1)C(=O)[O-].[Na+] [Compound I-45] | 0.125 µg/mL | 0.5 µg/mL | 0.25 µg/mL | 0.25 µg/mL | ≤ 0.031 µg/mL | 0.5 µg/mL | 0.125 µg/mL | –
Nc1nc(C(=NOC(CC(=O)[O-])C(=O)[O-])C(=O)NC2C(=O)N3C(c4nnn[n-]4)=C(C[N+]4(CCNC(=O)c5ccc(O)c(O)c5Cl)CCCC4)CSC23)c(Cl)s1.[Na+].[Na+] (stereo not shown) [Compound I-91] | – | – | – | – | – | – | – | Minimum Inhibitory Concentration (MIC) E. coli ATCC BAA-199 [9]: 0.125 µg/mL; Minimum Inhibitory Concentration (MIC) P. aeruginosa SR27060 [10]: 0.125 µg/mL; Minimum Inhibitory Concentration (MIC) A. baumannii SR27323 [11]: 0.5 µg/mL; Minimum Inhibitory Concentration (MIC) E. coli ATCC BAA-200 [12]: 0.25 µg/mL; Minimum Inhibitory Concentration (MIC) K. pneumoniae ATCCBAA-1705 [13]: ≦0.031 μg/ml; Minimum Inhibitory Concentration (MIC) P. aeruginosa SR24837 [14]: 0.063 µg/mL; Minimum Inhibitory Concentration (MIC) P. aeruginosa SR24 [15]: 0.063 µg/mL
